Reference: patent US9169260B2 (MERCK SHARP & DOHME CORP., priority 2011, dated 2015)

The compounds below were run against GST tagged IRAK-4 (Homo sapiens (Human), UniProt Q9NWZ3) (assay: IRAK-4 Kinase Assay (IMAP fluorescence polarization)). Details: 100 μM ATP, 30 minutes at 25° C.
Assay type: biochemical
How it was run: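 Activity was read by IMAP fluorescence polarization, where phosphopeptide binding to M(III) nanoparticles raises FP. The 30-minute, 25° C reaction used 100 μM ATP, 100 nM RP7030 substrate and 0.5 nM GST-IRAK-4 in pH 7.2 Tris buffer with MgCl2, DTT and Tween 20.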

Chain of GST tagged IRAK-4 (Q9NWZ3 whole entry): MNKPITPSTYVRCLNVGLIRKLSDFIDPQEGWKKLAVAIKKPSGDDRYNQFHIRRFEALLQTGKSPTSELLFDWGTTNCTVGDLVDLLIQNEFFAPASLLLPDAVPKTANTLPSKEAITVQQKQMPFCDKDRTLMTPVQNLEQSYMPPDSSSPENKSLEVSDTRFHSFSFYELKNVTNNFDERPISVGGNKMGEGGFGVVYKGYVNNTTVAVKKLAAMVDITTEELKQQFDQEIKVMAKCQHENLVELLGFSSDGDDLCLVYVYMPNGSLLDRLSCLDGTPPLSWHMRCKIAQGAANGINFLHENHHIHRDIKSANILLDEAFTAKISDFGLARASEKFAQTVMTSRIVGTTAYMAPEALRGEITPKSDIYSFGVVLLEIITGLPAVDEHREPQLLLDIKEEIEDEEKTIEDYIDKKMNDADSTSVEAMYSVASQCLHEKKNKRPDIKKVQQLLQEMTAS

| IC50 [µM] | Structure (SMILES) |
| --- | --- |
| < 0.1 | Cc1ccc(-n2nc(N3CCN(C4CCCCC4)CC3)cc2NC(=O)c2cnn3cccnc23)nc1 [Example 319, N-[3-(4-cyclohexylpiperazin-1-yl)-1-(5-methylpyridin-2-yl)-1H-pyrazol-5-yl]pyrazolo[1,5-a]pyrimidine-3-carboxamide] |
| < 0.1 | Cc1ccc(-n2nc(N3CCN(C4CCC4)CC3)cc2NC(=O)c2cnn3cccnc23)nc1 [Example 320, N-[3-(4-cyclobutylpiperazin-1-yl)-1-(5-methylpyridin-2-yl)-1H-pyrazol-5-yl]pyrazolo[1,5-a]pyrimidine-3-carboxamide] |
| < 0.1 | Cc1ccc(-n2nc(N3CCN(C4CCOCC4)CC3)cc2NC(=O)c2cnn3cccnc23)nc1 [Example 321, N-{1-(5-methylpyridin-2-yl)-3-[4-(tetrahydro-2H-pyran-4-yl)piperazin-1-yl]-1H-pyrazol-5-yl}pyrazolo[1,5-a]pyrimidine-3-carboxamide] |
| < 0.1 | Cc1ccc(-n2nc(N3CCN(C4CCCCCC4)CC3)cc2NC(=O)c2cnn3cccnc23)nc1 [Example 322, N-[3-(4-cycloheptylpiperazin-1-yl)-1-(5-methylpyridin-2-yl)-1H-pyrazol-5-yl]pyrazolo[1,5-a]pyrimidine-3-carboxamide] |
| < 0.1 | Cc1ccc(-n2nc(N3CCN(C4CCCC4)CC3)cc2NC(=O)c2cnn3cccnc23)nc1 [Example 323, N-[3-(4-cyclopentylpiperazin-1-yl)-1-(5-methylpyridin-2-yl)-1H-pyrazol-5-yl]pyrazolo[1,5-a]pyrimidine-3-carboxamide] |
| < 0.1 | Cc1ccc(-n2nc(N3CCN(CC(C)C)CC3)cc2NC(=O)c2cnn3cccnc23)nc1 [Example 324, N-{3-[4-(2-methylpropyl)piperazin-1-yl]-1-(5-methylpyridin-2-yl)-1H-pyrazol-5-yl}pyrazolo[1,5-a]pyrimidine-3-carboxamide] |
| < 0.1 | Cc1ccc(-n2nc(C3CCN(C4CCCC4)CC3)cc2NC(=O)c2cnn3cccnc23)cc1 [Example 325, N-(3-(1-cyclopentylpiperidin-4-yl)-1-(p-tolyl)-1H-pyrazol-5-yl)pyrazolo[1,5-a]pyrimidine-3-carboxamide] |
| < 0.1 | Cc1ccc(-n2nc(-c3ccc(CO)nc3)cc2NC(=O)c2cnn3cccnc23)cc1 [Example 330, N-{3-[6-(hydroxymethyl)pyridin-3-yl]-1-(4-methylphenyl)-1H-pyrazol-5-yl}pyrazolo[1,5-a]pyrimidine-3-carboxamide] |
| < 0.1 | Cc1ccc(-n2nc(-c3ccc(S(=O)(=O)C4CC4)cc3)cc2NC(=O)c2cnn3cccnc23)cc1 [Example 336, N-{3-[4-(cyclopropylsulfonyl)phenyl]-1-(4-methylphenyl)-1H-pyrazol-5-yl}pyrazolo[1,5-a]pyrimidine-3-carboxamide] |
| 0.1 | Cc1ccc(-n2nc(-c3ccc(S(C)(=O)=O)cc3C(F)(F)F)cc2NC(=O)c2cnn3cccnc23)cc1 [Example 338, N-{1-(4-methylphenyl)-3-[4-(methylsulfonyl)-2-(trifluoromethyl)phenyl]-1H-pyrazol-5-yl}pyrazolo[1,5-a]pyrimidine-3-carboxamide] |
| < 0.1 | Cc1ccc(-n2nc(-c3ccc(S(=O)(=O)N4CCN(C)CC4)cc3)cc2NC(=O)c2cnn3cccnc23)cc1 [Example 342, N-[1-(4-methylphenyl)-3-{4-[(4-methylpiperazin-1-yl)sulfonyl]phenyl}-1H-pyrazol-5-yl]pyrazolo[1,5-a]pyrimidine-3-carboxamide] |
| < 0.1 | CCN(CC)S(=O)(=O)c1ccc(-c2cc(NC(=O)c3cnn4cccnc34)n(-c3ccc(C)cc3)n2)cc1 [Example 343, N-{3-[4-(diethylsulfamoyl)phenyl]-1-(4-methylphenyl)-1H-pyrazol-5-yl}pyrazolo[1,5-a]pyrimidine-3-carboxamide] |
| < 0.1 | Cc1ccc(-n2nc(-c3ccc(S(=O)(=O)N4CCC4)cc3)cc2NC(=O)c2cnn3cccnc23)cc1 [Example 344, N-{3-[4-(azetidin-1-ylsulfonyl)phenyl]-1-(4-methylphenyl)-1H-pyrazol-5-yl}pyrazolo[1,5-a]pyrimidine-3-carboxamide] |
| < 0.1 | Cc1ccc(-n2nc(-c3ccc(S(=O)(=O)N(C)C)cc3C)cc2NC(=O)c2cnn3cccnc23)cc1 [Example 345, N-{3-[4-(dimethylsulfamoyl)-2-methylphenyl]-1-(4-methylphenyl)-1H-pyrazol-5-yl}pyrazolo[1,5-a]pyrimidine-3-carboxamide] |
| < 0.1 | CNS(=O)(=O)c1ccc(-c2cc(NC(=O)c3cnn4cccnc34)n(-c3ccc(C)cc3)n2)cc1 [Example 347, N-{1-(4-methylphenyl)-3-[4-(methylsulfamoyl)phenyl]-1H-pyrazol-5-yl}pyrazolo[1,5-a]pyrimidine-3-carboxamide] |
| < 0.1 | CNC(=O)c1ccc(-c2cc(NC(=O)c3cnn4cccnc34)n(-c3ccc(C)cc3)n2)cc1 [Example 348, N-{3-[4-(methylcarbamoyl)phenyl]-1-(4-methylphenyl)-1H-pyrazol-5-yl}pyrazolo[1,5-a]pyrimidine-3-carboxamide] |
| < 0.1 | Cc1ccc(-n2nc(-c3ccc(C(=O)N(C)C)cc3)cc2NC(=O)c2cnn3cccnc23)cc1 [Example 349, N-{3-[4-(dimethylcarbamoyl)phenyl]-1-(4-methylphenyl)-1H-pyrazol-5-yl}pyrazolo[1,5-a]pyrimidine-3-carboxamide] |

Same assay, conditions: 100 μM ATP, 30 minutes at 25° C.; μM

| IC50 [µM] | Structure (SMILES) |
| --- | --- |
| < 1 | Cc1ccc(-n2nc(C3CN(Cc4cocn4)C3)cc2NC(=O)c2cnn3cccnc23)cc1 [Example 318, N-{1-(4-methylphenyl)-3-[1-(1,3-oxazol-4-ylmethyl)azetidin-3-yl]-1H-pyrazol-5-yl}pyrazolo[1,5-a]pyrimidine-3-carboxamide] |
| < 1 | Cc1ccc(-n2nc(-c3cnn(C)c3)cc2NC(=O)c2cnn3cccnc23)cc1 [Example 326, N-[1′-methyl-1-(4-methylphenyl)-1H,1′H-3,4′-bipyrazol-5-]pyrazolo[1,5-a]pyrimidine-3-carboxamide] |
| < 1 | Cc1ccc(-n2nc(-c3ccnc(CO)c3)cc2NC(=O)c2cnn3cccnc23)cc1 [Example 329, N-{3-[2-(hydroxymethyl)pyridin-4-yl]-1-(4-methylphenyl)-1H-pyrazol-5-yl}pyrazolo[1,5-a]pyrimidine-3-carboxamide] |
| < 1 | Cc1ccc(-n2nc(-c3ccnn3C)cc2NC(=O)c2cnn3cccnc23)cc1 [Example 331, N-[2′-methyl-1-(4-methylphenyl)-1H,2′H-3,3′-bipyrazol-5-yl]pyrazolo[1,5-a]pyrimidine-3-carboxamide] |
| < 1 | Cc1ccc(-n2nc(-c3cncc(CO)c3)cc2NC(=O)c2cnn3cccnc23)cc1 [Example 332, N-{3-[5-(hydroxymethyl)pyridin-3-yl]-1-(4-methylphenyl)-1H-pyrazol-5-yl}pyrazolo[1,5-a]pyrimidine-3-carboxamide] |
| < 1 | Cc1ccc(-n2nc(-c3cnn(CCS(C)(=O)=O)c3)cc2NC(=O)c2cnn3cccnc23)cc1 [Example 333, N-{1-(4-methylphenyl)-1′-[2-(methylsulfonyl)ethyl]-1H,1′H-3,4′-bipyrazol-5-yl}pyrazolo[1,5-a]pyrimidine-3-carboxamide] |
| < 1 | Cc1ccc(-n2nc(-c3conc3C)cc2NC(=O)c2cnn3cccnc23)cc1 [Example 334, N-[3-(3-methylisoxazol-4-yl)-1-(4-methylphenyl)-1H-pyrazol-5-yl]pyrazolo[1,5-a]pyrimidine-3-carboxamide] |
| < 1 | Cc1ccc(-n2nc(-c3csc(N4CCOCC4)n3)cc2NC(=O)c2cnn3cccnc23)cc1 [Example 335, N-[1-(4-methylphenyl)-3-(2-morpholin-4-yl-1,3-thiazol-4-yl)-1H-pyrazol-5-yl]pyrazolo[1,5-a]pyrimidine-3-carboxamide] |
| < 1 | Cc1ccc(-n2nc(-c3ccc(=O)n(C)c3)cc2NC(=O)c2cnn3cccnc23)cc1 [Example 337, N-[3-(1-methyl-6-oxo-1,6-dihydropyridin-3-yl)-1-(4-methylphenyl)-1H-pyrazol-5-yl]pyrazolo[1,5-a]pyrimidine-3-carboxamide] |
| < 1 | Cc1ccc(-n2nc(-c3c(F)cccc3OCc3ccccc3)cc2NC(=O)c2cnn3cccnc23)cc1 [Example 339, N-{3-[2-(benzyloxy)-6-fluorophenyl]-1-(4-methylphenyl)-1H-pyrazol-5-yl}pyrazolo[1,5-a]pyrimidine-3-carboxamide] |
| < 1 | CCN(CC)S(=O)(=O)c1ccc(-c2cc(NC(=O)c3cnn4cccnc34)n(-c3ccc(C)cc3)n2)c(C)c1 [Example 340, N-{3-[4-(diethylsulfamoyl)-2-methylphenyl]-1-(4-methylphenyl)-1H-pyrazol-5-yl}pyrazolo[1,5-a]pyrimidine-3-carboxamide] |
| < 1 | Cc1ccc(-n2nc(-c3ccc(S(=O)(=O)C(C)C)cc3)cc2NC(=O)c2cnn3cccnc23)cc1 [Example 341, N-[3-{4-[(1-methylethyl)sulfonyl]phenyl}-1-(4-methylphenyl)-1H-pyrazol-5-yl]pyrazolo[1,5-a]pyrimidine-3-carboxamide] |
| < 1 | Cc1ccc(-n2nc(-c3cccc(NS(C)(=O)=O)c3)cc2NC(=O)c2cnn3cccnc23)cc1 [Example 346, N-[1-(4-methylphenyl)-3-{3-[(methylsulfonyl)amino]phenyl}-1H-pyrazol-5-yl]pyrazolo[1,5-a]pyrimidine-3-carboxamide] |
| < 1 | CNC(=O)c1cccc(-c2cc(NC(=O)c3cnn4cccnc34)n(-c3ccc(C)cc3)n2)c1 [Example 350, N-{3-[3-(methylcarbamoyl)phenyl]-1-(4-methylphenyl)-1H-pyrazol-5-yl}pyrazolo[1,5-a]pyrimidine-3-carboxamide] |
| < 1 | Cc1ccc(-n2nc(-c3ccc(S(C)(=O)=O)nc3)cc2NC(=O)c2cnn3cccnc23)cc1 [Example 351, N-{1-(4-methylphenyl)-3-[6-(methylsulfonyl)pyridin-3-yl]-1H-pyrazol-5-yl}pyrazolo[1,5-a]pyrimidine-3-carboxamide] |
